Experimental data reported in ChEMBL document CHEMBL3739275, “Tryptophan dendrimers that inhibit HIV replication, prevent virus entry and bind to the HIV envelope glycoproteins gp120 and gp41” (Eur J Med Chem, 2015).
Activity calls are given as the source filed them. The rule behind the calls is not given here.

Key:
[1] = Cytotoxicity against human CEM cells assessed as cell count after 3 days; type: cell-based; details: CEM cells (CCRF-CEM)
[2] = Binding affinity to recombinant HIV1 3B gp-120 expressed in CHO cells by surface plasmon resonance assay; design: species or system Human immunodeficiency virus 1; details: read-out: Kd(app)
[3] = tested on: Human immunodeficiency virus 2; assay: Antiviral activity against HIV2 ROD infected in human CEM cells assessed as inhibition of virus-induced giant cell formation after 4 to 5 days by microscopic analysis; type: functional, organism-based; details: Human immunodeficiency virus 2, ISOLATE ROD, CCRF-CEM
[4] = Binding affinity to recombinant HIV1 3B gp-120 expressed in CHO cells at 50 uM by surface plasmon resonance assay; details: Human immunodeficiency virus 1
[5] = tested on: Human immunodeficiency virus 1; assay: Antiviral activity against HIV1 3B infected in human CEM cells assessed as inhibition of virus-induced giant cell formation after 4 to 5 days by microscopic analysis; type: functional, organism-based; details: CCRF-CEM; for EC50: Human immunodeficiency virus 1, 3B
[6] = tested on: Human immunodeficiency virus 1; assay: Binding affinity to recombinant HIV1 HxB2 gp-41 at 50 uM by surface plasmon resonance assay
[7] = tested on: Human immunodeficiency virus 1; assay: Antiviral activity against HIV1 NL4.3 infected in human MT4 cells assessed as inhibition of virus-induced cytopathic effect after 5 days by MTS/phenazine ethosulfate method; type: functional, organism-based; details: Human immunodeficiency virus 1, NL4.3, MT4, 120 h
[8] = Selectivity index, ratio of CC50 for human CEM cells to EC50 for HIV1 3B; type: toxicity, cell-based, CCRF-CEM; details: read-out: Ratio CC50/EC50
[9] = tested on: Human immunodeficiency virus 1; assay: Antiviral activity against HIV1 3B infected in human MT4 cells assessed as inhibition of early viral infection to host cells by measuring p24 production at 10 uM treated 1 to 25 hrs of post infection by ELISA; type: functional, organism-based

Compound	CC50 at 72 h [1] [µM]	Kd [2] [µM]	EC50 [3] [µM]	Activity [4]	Activity [5]	EC50 [5] [µM]	Activity [6]	EC50 [7] [µM]	selectivity ratio [8]	Activity [9]
CCc1c(CNc2nc(N[C@@H](Cc3c[nH]c4ccccc34)C(=O)O)nc(N[C@@H](Cc3c[nH]c4ccccc34)C(=O)O)n2)c(CC)c(CNc2nc(N[C@@H](Cc3c[nH]c4ccccc34)C(=O)O)nc(N[C@@H](Cc3c[nH]c4ccccc34)C(=O)O)n2)c(CC)c1CNc1nc(N[C@@H](Cc2c[nH]c3ccccc23)C(=O)O)nc(N[C@@H](Cc2c[nH]c3ccccc23)C(=O)O)n1	> 250	14	–	–	–	–	–	–	–	–
CN[C@@H]1[C@H](O[C@@H]2OC[C@@H](O)[C@H](O)[C@H]2O)[C@@H](O)[C@H](O[C@H]2c3cc(C)c(C(=O)N[C@H](C)C(=O)O)c(O)c3-c3c(cc4c(c3O)C(=O)c3cc(OC)cc(O)c3C4=O)[C@@H]2O)O[C@@H]1C [PRADIMICIN A]	> 100	–	–	–	–	–	–	–	–	–
C[C@H](Cn1cnc2c(N)ncnc21)OCP(=O)(O)O [TENOFOVIR ANHYDROUS]	> 100	–	–	–	–	–	–	–	–	–
O=C(CCC(CCC(=O)N[C@@H](Cc1c[nH]c2ccccc12)C(=O)O)(CCC(=O)N[C@H](Cc1c[nH]c2ccccc12)C(=O)O)NC(=O)CCC(CCC(=O)NC(CCC(=O)N[C@@H](Cc1c[nH]c2ccccc12)C(=O)O)(CCC(=O)N[C@@H](Cc1c[nH]c2ccccc12)C(=O)O)CCC(=O)N[C@H](Cc1c[nH]c2ccccc12)C(=O)O)(CCC(=O)NC(CCC(=O)N[C@@H](Cc1c[nH]c2ccccc12)C(=O)O)(CCC(=O)N[C@H](Cc1c[nH]c2ccccc12)C(=O)O)CCC(=O)N[C@H](Cc1c[nH]c2ccccc12)C(=O)O)[N+](=O)[O-])N[C@@H](Cc1c[nH]c2ccccc12)C(=O)O	> 100	–	44	Active	Dose-dependent effect	9.9	Active	–	–	–
O=C(O)CCC(CCC(=O)O)(CCC(=O)O)NC(=O)C[C@H]1C[C@@H](CC(=O)NC(CCC(=O)O)(CCC(=O)O)CCC(=O)O)C[C@@H](CC(=O)NC(CCC(=O)O)(CCC(=O)O)CCC(=O)O)C1	> 250	–	> 250	–	–	> 250	–	–	–	–
O=C(CCC(CCC(=O)N[C@@H](Cc1c[nH]c2ccccc12)C(=O)O)(CCC(=O)N[C@H](Cc1c[nH]c2ccccc12)C(=O)O)NC(=O)c1cc(C(=O)NC(CCC(=O)N[C@@H](Cc2c[nH]c3ccccc23)C(=O)O)(CCC(=O)N[C@H](Cc2c[nH]c3ccccc23)C(=O)O)CCC(=O)N[C@H](Cc2c[nH]c3ccccc23)C(=O)O)cc(C(=O)NC(CCC(=O)N[C@@H](Cc2c[nH]c3ccccc23)C(=O)O)(CCC(=O)N[C@H](Cc2c[nH]c3ccccc23)C(=O)O)CCC(=O)N[C@H](Cc2c[nH]c3ccccc23)C(=O)O)c1)N[C@@H](Cc1c[nH]c2ccccc12)C(=O)O	53	–	–	Active	Dose-dependent effect	2.6	Active	1.3	–	–
CCc1c(CC(=O)NC(CCC(=O)O)(CCC(=O)O)CCC(=O)O)c(CC)c(CC(=O)NC(CCC(=O)O)(CCC(=O)O)CCC(=O)O)c(CC)c1CC(=O)NC(CCC(=O)O)(CCC(=O)O)CCC(=O)O	> 250	–	> 250	–	–	> 250	–	–	–	–
O=C(O)CCC(CCC(=O)O)(CCC(=O)O)NC(=O)CN(CCN(CC(=O)NC(CCC(=O)O)(CCC(=O)O)CCC(=O)O)CC(=O)NC(CCC(=O)O)(CCC(=O)O)CCC(=O)O)CC(=O)NC(CCC(=O)O)(CCC(=O)O)CCC(=O)O	> 250	–	> 250	–	–	> 250	–	–	–	–
O=C(CCC(CCC(=O)N[C@@H](Cc1c[nH]c2ccccc12)C(=O)O)(CCC(=O)N[C@@H](Cc1c[nH]c2ccccc12)C(=O)O)NC(=O)CN(CCN(CC(=O)NC(CCC(=O)N[C@@H](Cc1c[nH]c2ccccc12)C(=O)O)(CCC(=O)N[C@@H](Cc1c[nH]c2ccccc12)C(=O)O)CCC(=O)N[C@H](Cc1c[nH]c2ccccc12)C(=O)O)CC(=O)NC(CCC(=O)N[C@@H](Cc1c[nH]c2ccccc12)C(=O)O)(CCC(=O)N[C@H](Cc1c[nH]c2ccccc12)C(=O)O)CCC(=O)N[C@H](Cc1c[nH]c2ccccc12)C(=O)O)CC(=O)NC(CCC(=O)N[C@@H](Cc1c[nH]c2ccccc12)C(=O)O)(CCC(=O)N[C@H](Cc1c[nH]c2ccccc12)C(=O)O)CCC(=O)N[C@H](Cc1c[nH]c2ccccc12)C(=O)O)N[C@@H](Cc1c[nH]c2ccccc12)C(=O)O	> 30	–	≥ 30	Active	Dose-dependent effect	11.3	Active	–	–	–
CCc1c(CC(=O)NC(CCC(=O)N[C@@H](Cc2c[nH]c3ccccc23)C(=O)O)(CCC(=O)N[C@@H](Cc2c[nH]c3ccccc23)C(=O)O)CCC(=O)N[C@H](Cc2c[nH]c3ccccc23)C(=O)O)c(CC)c(CC(=O)NC(CCC(=O)N[C@@H](Cc2c[nH]c3ccccc23)C(=O)O)(CCC(=O)N[C@H](Cc2c[nH]c3ccccc23)C(=O)O)CCC(=O)N[C@H](Cc2c[nH]c3ccccc23)C(=O)O)c(CC)c1CC(=O)NC(CCC(=O)N[C@@H](Cc1c[nH]c2ccccc12)C(=O)O)(CCC(=O)N[C@H](Cc1c[nH]c2ccccc12)C(=O)O)CCC(=O)N[C@H](Cc1c[nH]c2ccccc12)C(=O)O	> 100	–	–	Active	Dose-dependent effect	6.2	Active	–	–	–
O=C(CCC(CCC(=O)N[C@@H](Cc1c[nH]c2ccccc12)C(=O)O)(CCC(=O)N[C@H](Cc1c[nH]c2ccccc12)C(=O)O)NC(=O)[C@H]1C[C@@H](C(=O)NC(CCC(=O)N[C@@H](Cc2c[nH]c3ccccc23)C(=O)O)(CCC(=O)N[C@H](Cc2c[nH]c3ccccc23)C(=O)O)CCC(=O)N[C@H](Cc2c[nH]c3ccccc23)C(=O)O)C[C@@H](C(=O)NC(CCC(=O)N[C@@H](Cc2c[nH]c3ccccc23)C(=O)O)(CCC(=O)N[C@H](Cc2c[nH]c3ccccc23)C(=O)O)CCC(=O)N[C@H](Cc2c[nH]c3ccccc23)C(=O)O)C1)N[C@@H](Cc1c[nH]c2ccccc12)C(=O)O	> 250	–	–	Active	Dose-dependent effect	4.5	Active	2	> 55	–
O=C(CCC(CCC(=O)N[C@@H](Cc1c[nH]c2ccccc12)C(=O)O)(CCC(=O)N[C@H](Cc1c[nH]c2ccccc12)C(=O)O)NC(=O)CN(CC(=O)NC(CCC(=O)N[C@@H](Cc1c[nH]c2ccccc12)C(=O)O)(CCC(=O)N[C@H](Cc1c[nH]c2ccccc12)C(=O)O)CCC(=O)N[C@H](Cc1c[nH]c2ccccc12)C(=O)O)CC(=O)NC(CCC(=O)N[C@H](Cc1c[nH]c2ccccc12)C(=O)O)(CCC(=O)N[C@H](Cc1c[nH]c2ccccc12)C(=O)O)CCC(=O)N[C@H](Cc1c[nH]c2ccccc12)C(=O)O)N[C@@H](Cc1c[nH]c2ccccc12)C(=O)O	59	–	–	Active	Dose-dependent effect	3.2	Active	2.5	–	Active
